# Source: PubChem BioAssay (NCI)
# “And” between values parts separate entries of the source, which are not always exact repeats. Identical values can stand only once.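 Step 1: Grow cells in 96-well plates. Step 2: Expose to compound for 48 hours at 5 concentrations. Step 3: Interpolate endpoints linearly; if unreached, use highest concentration. GI50 marks 50% less growth. TGI: concentration producing complete growth inhibition.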
# Tests used:
# Experiment in all cases: inhibition of tumour cell growth, NCI panel, 48 h
# UACC-257 melanoma = system: UACC-257 melanoma
# NCI-H226 lung = system: NCI-H226 lung
# NCI-H460 lung = system: NCI-H460 lung
# MOLT-4 leukemia = system: MOLT-4 leukemia
# SK-MEL-28 melanoma = system: SK-MEL-28 melanoma
# SK-MEL-5 melanoma = system: SK-MEL-5 melanoma
# CCRF-CEM leukemia = system: CCRF-CEM leukemia
# LOX IMVI melanoma = system: LOX IMVI melanoma
# HS 578T breast = system: HS 578T breast
# T-47D breast = system: T-47D breast
# UO-31 renal = system: UO-31 renal
# A498 renal = system: A498 renal
# SK-OV-3 ovarian = system: SK-OV-3 ovarian
# PC-3 prostate = system: PC-3 prostate
# OVCAR-8 ovarian = system: OVCAR-8 ovarian
# OVCAR-3 ovarian = system: OVCAR-3 ovarian
Compound,TGI (UACC-257 melanoma) [µM],TGI (NCI-H226 lung) [µM],TGI (NCI-H460 lung) [µM],TGI (MOLT-4 leukemia) [µM],TGI (SK-MEL-28 melanoma) [µM],TGI (SK-MEL-5 melanoma) [µM],TGI (CCRF-CEM leukemia) [µM],TGI (LOX IMVI melanoma) [µM],TGI (HS 578T breast) [µM],TGI (T-47D breast) [µM],TGI (UO-31 renal) [µM],TGI (A498 renal) [µM],TGI (SK-OV-3 ovarian) [µM],TGI (PC-3 prostate) [µM],TGI (OVCAR-8 ovarian) [µM],TGI (OVCAR-3 ovarian) [µM],GI50 (NCI-H460 lung),GI50 (HS 578T breast),GI50 (T-47D breast),GI50 (OVCAR-8 ovarian)
COC(=O)C1=NN2c3ccccc3CN([C@@H](C)c3ccccc3)C(=O)[C@@H]2[C@H]1c1ccccc1,> 100,> 100,> 100,> 100,> 100,> 100,> 100,> 100,> 100,> 100,> 100,> 100,> 100,> 100,> 100,> 100,–,–,–,–
CCCCCCCCOC(=O)c1cc([N+](=O)[O-])c(Sc2ncnc3nc[nH]c23)c([N+](=O)[O-])c1,28,13.5,17.4,16.2,42.8,18.4,2.68,1.24,70.9,3.31,19.9,44.9,25.3,13.8,10.1,4.01,–,–,–,–
COc1cc2c[n+](C)c3c4cc(OC)c(OC)cc4ccc3c2cc1OC,> 100,> 100,> 100,> 100,> 100,> 100,> 100,> 100,> 100,> 100,> 100,> 100,> 100,> 100,> 100,> 100,> 100 µM and 49.8 µM,> 100 µM and 10.3 µM,> 100 µM and 10.1 µM,32.9 µM and 15 µM
CCCCc1c2c(c(C)c3c1C(=O)OC3)Oc1ccccc1O2,96.9,> 81.1,18.2,> 100,> 100,> 26.2,> 100,> 100,5.8,> 100,> 100,> 46.5,> 100,> 34.8,35.7,1.51,–,–,–,–
O=C1c2ccccc2C(=O)c2c(NCCCN3CCOCC3)ccc(NCCCN3CCOCC3)c21,9.91,31.5,4.61,19.8,19.8,6.79,> 100,3.61,28.5,83.9,17.4,25.2,–,12.9,14.1,40.3,–,–,–,–
CC1C(c2ccccc2O)c2cc3c(cc2OC1N1CCOCC1)OCO3 (stereo not given),47,77.4,49.2,83.7,> 100,62.3,61.3,41.3,57.9,> 100,> 100,52.1,> 100,> 100,> 100,60.6,–,–,–,–
COc1ccc(/C=C/C(=O)c2ccc(OC(=O)/C=C/c3ccccc3)cc2)cc1,> 100,> 100,97.8,50.6,> 100,> 70,21.5,> 100,> 100,62.8,> 91.5,> 73.4,> 100,> 100,> 83.2,> 100,–,–,–,–
CCO/C(Cc1ccc(Cl)cc1)=N/NC(N)=S,> 100,> 100,> 100,> 100,> 100,> 100,> 100,> 100,> 100,> 100,> 100,> 100,> 100,> 100,> 100,> 100,–,–,–,–
O=C1CC2SC(COCc3ccccc3)(CCN2Cc2ccccc2)C1 (stereo not given),> 100,> 100,> 100,91.9,> 100,34.8,> 100,> 100,> 100,> 100,> 100,> 100,> 100,> 100,> 100,> 100,–,–,–,–
O=c1oc2ccc3ccccc3c2cc1-c1nc2ccc([N+](=O)[O-])cc2o1,> 100,> 100,> 100,> 100,> 100,> 100,> 100,> 91.3,> 100,> 100,> 92.1,> 88.4,> 100,> 100,> 100,> 100,–,–,–,–
COc1cc(/C=N/NC2=NCCCCN2)ccc1O,> 100,> 100,> 100,> 100,> 100,> 100,> 100,> 100,> 100,> 100,> 100,> 100,> 100,> 100,> 100,> 100,–,–,–,–
CC(O)[C@@]1(c2ccccc2)CC2(CCN(C)CC2)O[C@H]1C (stereo not given in full),> 100,> 100,> 100,> 100,> 100,> 100,79,> 100,> 100,98,> 100,> 100,> 100,> 100,> 100,> 100,–,–,–,–
c1ccc([P+](CCCCCC[P+](c2ccccc2)(c2ccccc2)c2ccccc2)(c2ccccc2)c2ccccc2)cc1,8.64,> 100,> 100,> 100,> 100,–,> 100,38.6,> 100,> 100,> 100,> 100,> 100,> 100,71.2,> 100,–,–,–,–
COc1cc2c[n+](C)c3c(c2cc1OC)Cc1cc2c(cc1-3)OCO2,> 100,> 100,–,> 100,> 100,> 100,> 100,> 100,> 100,> 100,> 100,> 100,> 100,> 100,> 100,> 100,–,–,–,–
